Experimental data as given in PubChem BioAssay (NCI).
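Interpolation was linear, between the two tested concentrations surrounding the appropriate level; five concentrations were tested over 48 hours in 96-well plates. Abbreviation: GI50, concentration required for 50% inhibition of growth. TGI denotes the concentration required for complete inhibition of growth.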

Columns and labels:
Experiment in all cases: growth of human tumour cells (NCI), 48 h
[1] = test system: 786-0 renal
[2] = test system: A498 renal
[3] = test system: A549 NSCLC
[4] = test system: ACHN renal
[5] = test system: BT-549 breast
[6] = test system: CAKI-1 renal
[7] = test system: CCRF-CEM leukemia
[8] = test system: COLO 205 colon
[9] = test system: DU-145 prostate
[10] = test system: EKVX NSCLC
[11] = test system: HCC-2998 colon
[12] = test system: HCT-116 colon
[13] = test system: HCT-15 colon
[14] = test system: HL-60(TB) leukemia
[15] = test system: HOP-62 NSCLC
[16] = test system: HOP-92 NSCLC
[17] = test system: HS 578T breast
[18] = test system: HT29 colon
[19] = test system: IGROV1 ovarian
[20] = test system: K-562 leukemia
[21] = test system: KM12 colon
[22] = test system: LOX IMVI melanoma
[23] = test system: M14 melanoma
[24] = test system: MALME-3M melanoma
[25] = test system: MCF7 breast
[26] = test system: MDA-MB-435
[27] = test system: MDA-MB-468 breast
[28] = test system: MOLT-4 leukemia
[29] = test system: NCI-H226 lung
[30] = test system: NCI-H23 lung
[31] = test system: NCI-H460 lung
[32] = test system: NCI-H522 lung
[33] = test system: NCI/ADR-RES ovarian
[34] = test system: OVCAR-3 ovarian
[35] = test system: OVCAR-4 ovarian
[36] = test system: OVCAR-5 ovarian
[37] = test system: OVCAR-8 ovarian
[38] = test system: PC-3 prostate
[39] = test system: RPMI-8226 leukemia
[40] = test system: RXF 393 renal
[41] = test system: SF-268 CNS
[42] = test system: SF-295 CNS
[43] = test system: SF-539 CNS
[44] = test system: SK-MEL-2 melanoma
[45] = test system: SK-MEL-28 melanoma
[46] = test system: SK-MEL-5 melanoma
[47] = test system: SK-OV-3 ovarian
[48] = test system: SNB-75 CNS
[49] = test system: SW-620 colon
[50] = test system: T-47D breast
[51] = test system: TK-10 renal
[52] = test system: U251 CNS
[53] = test system: UACC-257 melanoma
[54] = test system: UO-31 renal

**Q.** CN(C)c1nc(NCCNS(=O)(=O)c2ccc(C3=Nc4c(N)nc(N)nc4NC(c4ccc(C(F)(F)F)cc4)C3)cc2)nc(Nc2ccc(F)cc2)n1 (stereo not drawn) was tested. Which GI50 [1] did it give?
**A.** 10.1 µM

**Q.** What about the TGI [1] of the same compound?
**A.** 39.8 µM

**Q.** And the GI50 [2]?
**A.** 22.2 µM

**Q.** What about the TGI [2] of the same compound?
**A.** 77.4 µM

**Q.** And the GI50 [3]?
**A.** 55 µM

**Q.** And the TGI [3]?
**A.** > 86 µM

**Q.** And the GI50 [4]?
**A.** > 86 µM

**Q.** What about the TGI [4] of the same compound?
**A.** > 86 µM

**Q.** And the GI50 [5]?
**A.** 11.8 µM

**Q.** And the TGI [5]?
**A.** 32.6 µM

**Q.** And the GI50 [6]?
**A.** 36.8 µM

**Q.** And the TGI [6]?
**A.** > 86 µM

**Q.** And the GI50 [7]?
**A.** 3.24 µM

**Q.** What about the TGI [7] of the same compound?
**A.** > 86 µM

**Q.** What about the GI50 [8] of the same compound?
**A.** 9.73 µM

**Q.** And the TGI [8]?
**A.** 21.8 µM

**Q.** And the GI50 [9]?
**A.** 38.5 µM

**Q.** And the TGI [9]?
**A.** > 86 µM

**Q.** What about the GI50 [10] of the same compound?
**A.** 5.52 µM

**Q.** What about the TGI [10] of the same compound?
**A.** > 86 µM

**Q.** And the GI50 [11]?
**A.** 4.72 µM

**Q.** What about the TGI [11] of the same compound?
**A.** 25.9 µM

**Q.** And the GI50 [12]?
**A.** 5.1 µM

**Q.** What about the TGI [12] of the same compound?
**A.** > 86 µM

**Q.** And the GI50 [13]?
**A.** 55.1 µM

**Q.** And the TGI [13]?
**A.** > 86 µM

**Q.** What about the GI50 [14] of the same compound?
**A.** 4.07 µM

**Q.** What about the TGI [14] of the same compound?
**A.** > 86 µM

**Q.** What about the GI50 [15] of the same compound?
**A.** 31.4 µM

**Q.** And the TGI [15]?
**A.** > 86 µM

**Q.** And the GI50 [16]?
**A.** 2.99 µM

**Q.** And the TGI [16]?
**A.** 16.9 µM

**Q.** And the GI50 [17]?
**A.** 9.03 µM

**Q.** And the TGI [17]?
**A.** > 86 µM

**Q.** What about the GI50 [18] of the same compound?
**A.** 4.88 µM

**Q.** And the TGI [18]?
**A.** 18.3 µM

**Q.** And the GI50 [19]?
**A.** 11.2 µM

**Q.** And the TGI [19]?
**A.** > 86 µM

**Q.** And the GI50 [20]?
**A.** 3.51 µM

**Q.** What about the TGI [20] of the same compound?
**A.** > 86 µM

**Q.** And the GI50 [21]?
**A.** 6.14 µM

**Q.** What about the TGI [21] of the same compound?
**A.** > 86 µM

**Q.** What about the GI50 [22] of the same compound?
**A.** 3.14 µM

**Q.** What about the TGI [22] of the same compound?
**A.** 12 µM

**Q.** And the GI50 [23]?
**A.** 7.87 µM

**Q.** What about the TGI [23] of the same compound?
**A.** > 86 µM

**Q.** What about the GI50 [24] of the same compound?
**A.** 11.3 µM

**Q.** What about the TGI [24] of the same compound?
**A.** 24.2 µM

**Q.** What about the GI50 [25] of the same compound?
**A.** 2.87 µM

**Q.** And the TGI [25]?
**A.** 21 µM

**Q.** And the GI50 [26]?
**A.** 9.13 µM

**Q.** And the TGI [26]?
**A.** > 86 µM

**Q.** And the GI50 [27]?
**A.** 2.67 µM

**Q.** And the TGI [27]?
**A.** 11.7 µM

**Q.** And the GI50 [28]?
**A.** 2.74 µM

**Q.** And the TGI [28]?
**A.** > 86 µM

**Q.** And the GI50 [29]?
**A.** 37.3 µM

**Q.** What about the TGI [29] of the same compound?
**A.** > 86 µM

**Q.** What about the GI50 [30] of the same compound?
**A.** 27.7 µM

**Q.** And the TGI [30]?
**A.** > 86 µM

**Q.** What about the GI50 [31] of the same compound?
**A.** 5.49 µM

**Q.** And the TGI [31]?
**A.** > 86 µM

**Q.** And the GI50 [32]?
**A.** 17.8 µM

**Q.** And the TGI [32]?
**A.** 44.8 µM

**Q.** What about the GI50 [33] of the same compound?
**A.** > 86 µM

**Q.** What about the TGI [33] of the same compound?
**A.** > 86 µM

**Q.** And the GI50 [34]?
**A.** 11.9 µM

**Q.** What about the TGI [34] of the same compound?
**A.** > 86 µM

**Q.** And the GI50 [35]?
**A.** 25 µM

**Q.** And the TGI [35]?
**A.** > 86 µM

**Q.** And the GI50 [36]?
**A.** 19.9 µM

**Q.** What about the TGI [36] of the same compound?
**A.** > 86 µM

**Q.** And the GI50 [37]?
**A.** 26.1 µM

**Q.** What about the TGI [37] of the same compound?
**A.** > 86 µM

**Q.** And the GI50 [38]?
**A.** 4.37 µM

**Q.** What about the TGI [38] of the same compound?
**A.** > 86 µM

**Q.** And the GI50 [39]?
**A.** 4 µM

**Q.** What about the TGI [39] of the same compound?
**A.** > 86 µM

**Q.** What about the GI50 [40] of the same compound?
**A.** 2.57 µM

**Q.** What about the TGI [40] of the same compound?
**A.** 18.8 µM

**Q.** And the GI50 [41]?
**A.** 11.2 µM

**Q.** What about the TGI [41] of the same compound?
**A.** > 86 µM

**Q.** What about the GI50 [42] of the same compound?
**A.** 12.9 µM

**Q.** What about the TGI [42] of the same compound?
**A.** > 86 µM

**Q.** And the GI50 [43]?
**A.** 6.22 µM

**Q.** And the TGI [43]?
**A.** 24.7 µM

**Q.** What about the GI50 [44] of the same compound?
**A.** 10.8 µM

**Q.** What about the TGI [44] of the same compound?
**A.** 24.7 µM

**Q.** And the GI50 [45]?
**A.** 15 µM

**Q.** And the TGI [45]?
**A.** > 86 µM

**Q.** What about the GI50 [46] of the same compound?
**A.** 10.4 µM

**Q.** And the TGI [46]?
**A.** 21.3 µM

**Q.** What about the GI50 [47] of the same compound?
**A.** > 86 µM

**Q.** And the TGI [47]?
**A.** > 86 µM

**Q.** What about the GI50 [48] of the same compound?
**A.** 2.13 µM

**Q.** And the TGI [48]?
**A.** > 86 µM

**Q.** And the GI50 [49]?
**A.** 14.3 µM

**Q.** What about the TGI [49] of the same compound?
**A.** > 86 µM

**Q.** And the GI50 [50]?
**A.** 12 µM

**Q.** And the TGI [50]?
**A.** > 86 µM

**Q.** What about the GI50 [51] of the same compound?
**A.** > 86 µM

**Q.** And the TGI [51]?
**A.** > 86 µM

**Q.** What about the GI50 [52] of the same compound?
**A.** 5.52 µM

**Q.** And the TGI [52]?
**A.** > 86 µM

**Q.** And the GI50 [53]?
**A.** 23.3 µM

**Q.** What about the TGI [53] of the same compound?
**A.** > 86 µM

**Q.** What about the GI50 [54] of the same compound?
**A.** > 86 µM

**Q.** And the TGI [54]?
**A.** > 86 µM
